Publication PMC10511702, “Design, molecular modelling and synthesis of novel benzothiazole derivatives as BCL-2 inhibitors” (Scientific Reports, 2023)

Key:
recombinant BCL-2 = target: T1, recombinant BCL-2 (Homo sapiens, UniProt P10415); assay: In vitro BCL-2 inhibitory activity, TR-FRET assay (BPS Bioscience); format: binding; conditions: for inhibition at 10 µM / BCL-2 inhibition %: single dose of 10 µM
T1 construct: purchased BPS Bioscience 50272
Protocol: The in vitro enzyme inhibition determination for the synthesized compounds was carried out in BPS Bioscience Corporation, San Diego, CA, USA (www.bpsbioscience.com). […] The assay was performed by TR-FRET technology using a recombinant BCL-2 and a peptide- ligand substrate. The TR-FRET signal from the assay is correlated with the amount of Ligand binding to BCL-2. […] All of the binding reactions were conducted at room temperature. […] The reaction mixture incubated for 180 min prior to reading the TR-FRET signal. For the background, ligand was replaced with assay buffer. Fluorescence signals for both the donor and acceptor dyes were measured using a Tecan Infinite M1000 plate reader. TR-FRET was recorded as the ratio of the fluorescence of the acceptor and the donor dyes (acceptor/donor). Binding experiments were performed in duplicate at each concentration. The TR-FRET data were analyzed using the computer software, Graphpad Prism. In the absence of the compound in wells containing BCL-2 ligand, the TR-FRET signal (Ft) in each data set was defined as 100% activity. In wells without peptide ligand, the TR-FRET signal (Fb) in each data set was defined as 0% activity. The percent activity in the presence of each compound was calculated according to the following equation: % activity = [(F − Fb)/ (Ft − Fb)] × 100, where F = the TR-FRET signal in the presence of the compound. The percent inhibition was calculated according to the following equation: % inhibition = 100—% activity. IC50 determination for target compounds against BCL-2 was calculated. […] The IC50 value was determined by the concentration causing a half-maximal percent activity.

T1 sequence (P10415 whole entry): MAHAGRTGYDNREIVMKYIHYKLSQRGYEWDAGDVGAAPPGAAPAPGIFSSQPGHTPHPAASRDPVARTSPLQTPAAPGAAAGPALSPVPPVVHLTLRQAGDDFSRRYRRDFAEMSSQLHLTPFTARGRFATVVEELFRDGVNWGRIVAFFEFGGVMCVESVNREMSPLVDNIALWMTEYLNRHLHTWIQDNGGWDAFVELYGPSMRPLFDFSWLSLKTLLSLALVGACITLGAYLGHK

Molecule | inhibition at 10 µM (recombinant BCL-2) | melting point | IC50 (recombinant BCL-2; 5 concentrations 1 nM-10 µM) | inhibition at 0.1 µM (recombinant BCL-2; at 100 nM) | BCL-2 inhibition % (recombinant BCL-2)
O=C(c1ccc2nc(NS(=O)(=O)c3ccc4ccccc4c3)sc2c1)N1CCN(c2ccccc2)CC1 [7a, N-(6-(4-Phenylpiperazine-1-carbonyl)benzo[d]thiazol-2-yl)naphthalene-2-sulfonamide] | 0% |  |  |  | 
O=C(c1ccc2nc(NS(=O)(=O)c3ccc4ccccc4c3)sc2c1)N1CCN(c2ccccc2F)CC1 [7b, N-(6-(4-(2-Fluorophenyl)piperazine-1-carbonyl)benzo[d]thiazol-2-yl)naphthalene-2-sulfonamide] | 0% | 290 to 292 °C |  |  | 
COc1ccccc1N1CCN(C(=O)c2ccc3nc(NS(=O)(=O)c4ccc5ccccc5c4)sc3c2)CC1 [7c, N-(6-(4-(2-Methoxyphenyl)piperazine-1-carbonyl)benzo[d]thiazol-2-yl)naphthalene-2-sulfonamide] | 2% | 258 to 260 °C |  |  | 
O=C(c1ccc2nc(NS(=O)(=O)c3ccc4ccccc4c3)sc2c1)N1CCN(C(c2ccccc2)c2ccccc2)CC1 [7f, N-(6-(4-Benzhydrylpiperazine-1-carbonyl)benzo[d]thiazol-2-yl)naphthalene-2-sulfonamide] | 7% | 200 to 202 °C |  |  | 
O=C(c1ccc2nc(NS(=O)(=O)c3ccc4ccccc4c3)sc2c1)N1CCN(C/C=C/c2ccccc2)CC1 [7g, (E)-N-(6-(4-Cinnamylpiperazine-1-carbonyl)benzo[d]thiazol-2-yl)naphthalene-2-sulfonamide] | 7% | 240 to 242 °C |  |  | 
O=C(c1ccc2nc(NS(=O)(=O)c3ccc4ccccc4c3)sc2c1)N1CCN(Cc2ccc3c(c2)OCO3)CC1 [7h, N-(6-(4-(Benzo[d]dioxol-5-ylmethyl)piperazine-1-carbonyl)benzo[d]thiazol-2-yl)naphthalene-2-sulfonamide] | 1% | 178 to 180 °C |  |  | 
O=C(c1ccc2nc(NS(=O)(=O)c3ccc4ccccc4c3)sc2c1)N1CCN(C(=O)C2CCCO2)CC1 (stereo not shown) [7i, N-(6-(4-(Tetrahydrofuran-2-carbonyl)piperazine-1-carbonyl)benzo[d]thiazol-2-yl)naphthalene-2-sulfonamide] | 4% | 230 to 232 °C |  |  | 
O=C(Nc1ccc(OCc2cccc(F)c2)cc1)c1ccc2nc(NS(=O)(=O)c3ccc4ccccc4c3)sc2c1 [8a, N-(4-((3-Fluorobenzyl)oxy)phenyl)-2-(naphthalene-2-sulfonamido)-benzo[d]thiazole-6-carboxamide] | 41% | 146 to 148 °C |  |  | 
O=C(Nc1ccc(OCc2cccc(Cl)c2)cc1)c1ccc2nc(NS(=O)(=O)c3ccc4ccccc4c3)sc2c1 [8b, N-(4-((3-Chlorobenzyl)oxy)phenyl)-2-(naphthalene-2-sulfonamido)benzo[d]thiazole-6-carboxamide] | 16% | 198 to 200 °C |  |  | 
O=C(Nc1ccc(OCc2ccc(Cl)cc2)cc1)c1ccc2nc(NS(=O)(=O)c3ccc4ccccc4c3)sc2c1 [8c, N-(4-((4-Chlorobenzyl)oxy)phenyl)-2-(naphthalene-2-sulfonamido)benzo[d]thiazole-6-carboxamide] | 48% | 296 to 298 °C |  |  | 
O=C(Nc1ccc(OCc2ccc(Br)cc2)cc1)c1ccc2nc(NS(=O)(=O)c3ccc4ccccc4c3)sc2c1 [8d, N-(4-((4-Bromobenzyl)oxy)phenyl)-2-(naphthalene-2-sulfonamido)benzo[d]thiazole-6-carboxamide] | > 60% | ≥ 300 °C | 1.62 µM |  | 
Cc1ccc(COc2ccc(NC(=O)c3ccc4nc(NS(=O)(=O)c5ccc6ccccc6c5)sc4c3)cc2)cc1 [8e, N-(4-((4-Methylbenzyl)oxy)phenyl)-2-(naphthalene-2-sulfonamido)benzo[d]thiazole-6-carboxamide] | 13% | ≥ 300 °C |  |  | 
O=C(Nc1ccc(OCc2ccc(C(F)(F)F)cc2)cc1)c1ccc2nc(NS(=O)(=O)c3ccc4ccccc4c3)sc2c1 [8f, N-(4-((4-Trifluormethylbenzyl)oxy)phenyl)-2-(naphthalene-2-sulfonamido)benzo-[d]thiazole-6-carboxamide] | 14% | ≥ 300 °C |  |  | 
O=C(Nc1ccc(Oc2ccc(Cl)c(F)c2)cc1)c1ccc2nc(NS(=O)(=O)c3ccc4ccccc4c3)sc2c1 [9a, N-(4-(4-Chloro-3-fluorophenoxy)phenyl)-2-(naphthalene-2-sulfonamido)benzo[d]thiazole-6-carboxamide] | 9% | 294 to 296 °C |  |  | 
O=C(Nc1ccc(Oc2ccc(Br)cc2)cc1)c1ccc2nc(NS(=O)(=O)c3ccc4ccccc4c3)sc2c1 [9b, N-(4-(4-Bromophenoxy)phenyl)-2-(naphthalene-2-sulfonamido)benzo[d]thiazole-6-carboxamide] | 9% | 280 to 282 °C |  |  | 
COc1ccccc1N1CCN(C(=O)c2ccc3nc(NC(=O)c4ccc(NCCc5ccccc5)c([N+](=O)[O-])c4)sc3c2)CC1 [12a, N-(6-(4-(2-Methoxyphenyl)piperazine-1-carbonyl)benzo[d]thiazol-2-yl)-3-nitro-4-(phenethylamino)benzamide] | 15% | 184 to 186 °C |  |  | 
O=C(Nc1nc2ccc(C(=O)N3CCN(c4ccc(Cl)c(Cl)c4)CC3)cc2s1)c1ccc(NCCc2ccccc2)c([N+](=O)[O-])c1 [12b, N-(6-(4-(3,4-Dichlorophenyl)piperazine-1-carbonyl)benzo[d]thiazol-2-yl)-3-nitro-4-(phenethylamino)benzamide] | 18% | 176 to 178 °C |  |  | 
O=C(Nc1nc2ccc(C(=O)N3CCN(C(c4ccccc4)c4ccccc4)CC3)cc2s1)c1ccc(NCCc2ccccc2)c([N+](=O)[O-])c1 [12c, N-(6-(4-Benzhydrylpiperazine-1-carbonyl)benzo[d]thiazol-2-yl)-3-nitro-(phenethylamino)-benzamide] | 18% | 170 to 172 °C |  |  | 
O=C(Nc1nc2ccc(C(=O)N3CCN(C/C=C/c4ccccc4)CC3)cc2s1)c1ccc(NCCc2ccccc2)c([N+](=O)[O-])c1 [12d, (E)-N-(6-(4-Cinnamylpiperazine-1-carbonyl)benzo[d]thiazol-2-yl)-3-nitro-4-(phenethyl-amino)benzamide] | 14% | 244 to 246 °C |  |  | 
O=C(Nc1nc2ccc(C(=O)N3CCN(C(=O)C4CCCO4)CC3)cc2s1)c1ccc(NCCc2ccccc2)c([N+](=O)[O-])c1 (stereo not shown) [12e, 3-Nitro-4-(phenethylamino)-N-(6-(4-(tetrahydrofuran-2-carbonyl)piperazine-1-carbonyl)-benzo[d]thiazol-2-yl)benzamide] | 8% | 134 to 136 °C |  |  | 
CC1(C)CCC(CN2CCN(c3ccc(C(=O)NS(=O)(=O)c4ccc(NCC5CCOCC5)c([N+](=O)[O-])c4)c(Oc4cnc5[nH]ccc5c4)c3)CC2)=C(c2ccc(Cl)cc2)C1 [ABT-199 (20), reference compound] |  |  |  | 92% | 
N-(6-(4-(3,4-Dichlorophenyl)piperazine-1-carbonyl)benzo[d]thiazol-2-yl)naphthalene-2-sulfonamide [7e] |  |  |  |  | 0%
N-(6-(4-(4-Chlorophenyl)piperazine-1-carbonyl)benzo[d]thiazol-2-yl)naphthalene-2-sulfonamide [7d] |  |  |  |  | 8%
